Columns and labels:
PMM2-CDG fibroblasts = conditions: cited from earlier work
PMM2-CDG patients [1] = experiment: Clinical observation of lower body strength and speech; format: in vivo, human; conditions: P7
Procedure: Two patients were started on epalrestat on single patient investigational new drug (IND) (P5 IRB: 19-010017; IND #145262; P6 Protocol PMM2-CDG-001/A). Epalrestat was initiated on the parents' own initiative in the third patient (P7). Two patients were in their second year of epalrestat treatment, while the third, was in the 3rd year of treatment. Physical, neurological, and biochemical examinations were performed in 3 PMM2-CDG patients at baseline, and at every three months after the start of the epalrestat treatment. Patients underwent NPCRS phenotype severity assessment and biological sampling at every visit. Epalrestat (Ono Pharmaceuticals, Osaka, Japan) was taken orally 3 times per day (TID) before meals in a divided dose, with dosage escalation throughout the treatment. The pharmacological profile of epalrestat was as described elsewhere (Ligezka et al, Ann. Neurol., 90(6):887-900 (2021)). The starting dosage in P5 and P6 was 0.8 mg/kg/day, while P7 was started on 0.5 mg/kg/day due to their young age. P7 dosage was increased to 0.8 mg/day after a month, once safety was established. […] Quantification of goal attainment levels is done on a 5-point scale ranging from −2 to +2, with 0 indicating the expected level of goal attainment. Three individual goals were established by each patient (parent) at baseline and the progress was annually assessed. […]

PMM2-CDG patients [2] = experiment: Liver enzymes (AST, ALT) in patients on epalrestat; format: in vivo, human; conditions: for ALT: C < 45 U/l; for AST: C: < 50 U/l
Description: The primary objective of the study was to assess the efficacy and safety of epalrestat treatment in 3 PMM2-CDG pediatric subjects prior to a planned Phase III clinical trial (Oral epalrestat therapy in Pediatric Subjects with PMM2-CDG, NCT04925960). The secondary objective was to assess the ability of epalrestat to improve clinically relevant aspects of PMM2-CDG such as increased urine polyols (sorbitol, mannitol), abnormal glycosylation (carbohydrate deficient transferrin), abnormal coagulation (ATIII=antithrombin III), impaired liver function (ALT=Alanine Transaminase, AST=Aspartate Transaminase), neurologic function (Brief Ataxia Rating Scale=BARS), severity of phenotype (Nijmegen Pediatric CDG Rating Scale=NPCRS). The ability of epalrestat to inhibit polyol production was monitored by evaluating urine polyol levels (sorbitol, mannitol), which are elevated in PMM2-CDG. Next, carbohydrate deficient transferrin, which is abnormal in PMM2-CDG, was evaluated in order to assess improvement of glycosylation following epalrestat treatment. CDT mono-oligo/dioligo ratio and a-oligo/dioligo ratio are used to evaluate glycosylation abnormalities. Transferrin normally occurs with two glycan chains (di-oligo). In the case of glycosylation abnormalities, glycan chains are missing (A-oligo transferrin has no glycan chains, mono-oligo has one glycan chain, di-oligo has two glycan chains). The higher ratio of a-oligo/di-oligo and mono-oligo/di-oligo indicate glycosylation abnormalities are present. Therefore, improvement in a-oligo/di-oligo and mono-oligo/di-oligo ratios can be used to monitor improvement or worsening of glycosylation status. Changes in the liver enzymes AST, ALT, which are frequently elevated in PMM2-CDG, were monitored both as part of a safety study and as part of monitoring clinical improvement in coagulation. Neurologic improvement was assessed by modified BARS scores in 2 patients (3rd patient was not eligible for the test due to age at the start of the trial). NPCRS was assessed at every visit to assess changes in the severity of the patients' phenotype. Additionally, the frequency of adverse events, changes in vital signs, complete blood count, and changes in BMI were monitored.
Two patients were started on epalrestat on single patient investigational new drug (IND) (P5 IRB: 19-010017; IND #145262; P6 Protocol PMM2-CDG-001/A). Epalrestat was initiated on the parents' own initiative in the third patient (P7). Two patients were in their second year of epalrestat treatment, while the third, was in the 3rd year of treatment. Physical, neurological, and biochemical examinations were performed in 3 PMM2-CDG patients at baseline, and at every three months after the start of the epalrestat treatment. Patients underwent NPCRS phenotype severity assessment and biological sampling at every visit. Epalrestat (Ono Pharmaceuticals, Osaka, Japan) was taken orally 3 times per day (TID) before meals in a divided dose, with dosage escalation throughout the treatment. The pharmacological profile of epalrestat was as described elsewhere (Ligezka et al, Ann. Neurol., 90(6):887-900 (2021)). The starting dosage in P5 and P6 was 0.8 mg/kg/day, while P7 was started on 0.5 mg/kg/day due to their young age. P7 dosage was increased to 0.8 mg/day after a month, once safety was established. Blood and urine samples were collected routinely. Urine polyols, carbohydrate deficient transferrin (CDT), anti-thrombin III (ATIII), liver enzymes (ALT, AST), and complete blood count (CBC) were performed. Modified Brief Ataxia Rating Scale was used to assess ataxia in the 2 patients (P5, P6; P7 was not eligible for the test due to age). The modified BARS scale included Archimedes spiral test, but not the abnormalities of the ocular pursuit system and the scale range was 0-54. Goal attainment scale (GAS) was administered as described per study protocol (ClinicalTrials.gov Identifier: NCT04199000). […]

In the case of CC(/C=C1\SC(=S)N(CC(=O)O)C1=O)=C\c1ccccc1 [epalrestat], the “overall glycosylation as assessed by glycoproteomics” value (PMM2-CDG fibroblasts; PMM2-CDG fibroblasts) is listed as “overall glycosylation improvement”, the glycosylation in vitro (PMM2-CDG fibroblasts; PMM2-CDG, Ligezka et al 2021) is listed as “improved glycosylation” and the “lower body strength and speech” value (PMM2-CDG patients [1]) is listed as “improvement in lower body strength and speech”. It also gave an ALT (PMM2-CDG patients [2]; P5, 12 months, 1.5 mg/kg day, baseline 23) of 24 U/L, an AST (PMM2-CDG patients [2]; P5, 12 months, 1.5 mg/kg day, baseline 48) of 37 U/L and an ALT (PMM2-CDG patients [2]; P5, 24 months, 2 mg/kg day, baseline 23) of 25 U/L. For the same compound, the AST (PMM2-CDG patients [2]; P5, 24 months, 2 mg/kg day, baseline 48) was 34 U/L, the ALT (PMM2-CDG patients [2]; P5, 28 months, 3 mg/kg day, baseline 23) was 25 U/L and the AST (PMM2-CDG patients [2]; P5, 28 months, 3 mg/kg day, baseline 48) was 40 U/L. For the same compound, the liver transaminase levels (PMM2-CDG patients [2]; P5-P7, words) was “improvement”, the AST (PMM2-CDG patients [2]; P6, 12 months, 1.5 mg/kg day, baseline 58) was 40 U/L and the ALT (PMM2-CDG patients [2]; P6, 12 months, 1.5 mg/kg day, baseline 67) was 32 U/L. It also gave an AST (PMM2-CDG patients [2]; P6, 18 months, 3 mg/kg day, baseline 58) of 38 U/L, an ALT (PMM2-CDG patients [2]; P6, 18 months, 3 mg/kg day, baseline 67) of 49 U/L and an AST (PMM2-CDG patients [2]; P7, 12 months, 1.5 mg/kg day, baseline 548) of 80 U/L. The ALT (PMM2-CDG patients [2]; P7, 12 months, 1.5 mg/kg day, baseline 997) was 105 U/L.
